Measurements: patent US20050164370A1 (priority 2003, published 2005)
Read-outs that look alike come from different tables or passages of the source.

Assays:
Assay type in all cases: cell-based, yeast
[1] = system: transformed cells TM182-CYC1-CYC1IPT4; details: DOHLU+Glu, 30° C. for 24 hours
Description: (§1) Each of the transformed cells TM182-CYC1-CYC1IPT4, TM182-CYC1-ADHIPT4, TM182-CYC1-CYC1IPT5, TM182-CYC1-ADHIPT5, TM182-CRE1-CYC1IPT4, and TM182-CRE1-ADHIPT5 obtained in Example 16 was inoculated in 200 mL of DOHLU+Gal culture medium, and was pre-cultured at 30° C. for 36 hours. The thus obtained culture solutions were diluted with DOHLU+Glu culture medium so that OD600 became 0.200, and then the diluted ones were further diluted with DOHLU+Glu culture medium at a dilution rate of 1/200 to obtain diluted pre-cultured solutions.
(§2) A 96-well assay plate was prepared by filling each well with 1 μL of a DMSO solution of an examinee substance (Abscisic acid or 6-Benzyl aminopurine). In this regard, it is to be noted that the DMSO solution of a examinee substance was prepared so that the concentration thereof became 200 ppm. Simultaneously, an assay plate was prepared by filling each well with 1 μL of DMSO as a blank section.
(§3) Each of the diluted pre-cultured solutions was added in a volume of 100 μL per each well of both of the assay plates, and was cultured at 30° C. for 24 hours. After incubation, the turbidity of each well was measured using a plate reader.
as §1, with “TM182-CRE1-ADHIPT4, TM182-AHK2-CYC1IPT4, TM182-AHK2-CYC1IPT5” for “TM182-CRE1-CYC1IPT4,”, “TM182-AHK2-ADHIPT5” for “TM182-CRE1-ADHIPT5”
as §3

[2] = system: transformed cells TM182-CYC1-ADHIPT4; details: DOHLU+Glu, 30° C. for 24 hours
Description: as §1, §2, §3
as §1, with “TM182-CRE1-ADHIPT4, TM182-AHK2-CYC1IPT4, TM182-AHK2-CYC1IPT5” for “TM182-CRE1-CYC1IPT4,”, “TM182-AHK2-ADHIPT5” for “TM182-CRE1-ADHIPT5”
as §3

[3] = system: transformed cells TM182-CYC1-ADHIPT5; assay: Liquid culture of transformed cell TM182-CYC1-ADHIPT5 with examinee substance, absorbance; details: DOHLU+Glu, 30° C. for 24 hours
Description: (§4) The thus obtained culture solutions were diluted with DOHLU+Glu culture medium so that OD600 became 0.200, and then the diluted ones were further diluted with DOHLU+Glu culture medium at a dilution rate of 1/200 to obtain diluted pre-cultured solutions.
as §2
(§5) Each of the diluted pre-cultured solutions was added in a volume of 100 μL per each well of both of the assay plates, and was cultured at 30° C. for 24 hours. After incubation, the turbidity of each well was measured using a plate reader. The absorbance (OD600) of each of the culture solutions of the transformed cells containing the examinee substance was shown in Table 3. […] Further, the growth speeds of the transformed cells TM182-CRE1-CYC1IPT4 and TM182-CRE1-ADHIPT5 in the culture medium to which 6-Benzyl aminopurine was added were faster than those in the culture medium to which only DMSO was added.
as §5, with “4.” for “3.”, “TM182-CRE1-ADHIPT4, TM182-AHK2-CYC1IPT4, TM182-AHK2-CYC1IPT5” for “TM182-CRE1-CYC1IPT4”, “TM182-AHK2-ADHIPT5” for “TM182-CRE1-ADHIPT5”

[4] = system: transformed cells TM182-CRE1-ADHIPT4; assay: Liquid culture of transformed cell TM182-CRE1-ADHIPT4 with examinee substance, absorbance; details: Table 4, TM182-CRE1-ADH-IPT4, 1 μL of 200 ppm DMSO solution per 100 μL, DOHLU+Glu, 30° C. for 24 hours
Description: as §4, §2
as §5, with “4.” for “3.”, “TM182-CRE1-ADHIPT4, TM182-AHK2-CYC1IPT4, TM182-AHK2-CYC1IPT5” for “TM182-CRE1-CYC1IPT4”, “TM182-AHK2-ADHIPT5” for “TM182-CRE1-ADHIPT5”

[5] = Table 3, TM182-CYC1-CYC1-IPT4, 1 μL of 200 ppm DMSO solution per 100 μL
[6] = Table 4, TM182-CYC1-CYC1-IPT4, 1 μL of 200 ppm DMSO solution per 100 μL
[7] = Table 3, TM182-CYC1-ADH-IPT4, 1 μL of 200 ppm DMSO solution per 100 μL
[8] = Table 4, TM182-CYC1-ADH-IPT4, 1 μL of 200 ppm DMSO solution per 100 μL
[9] = Table 3, TM182-CYC1-ADH-IPT5, 1 μL of 200 ppm DMSO solution per 100 μL
[10] = Table 4, TM182-CYC1-ADH-IPT5, 1 μL of 200 ppm DMSO solution per 100 μL

SMILES | absorbance (OD600) of the culture solution [1, 5] | absorbance (OD600) of the culture solution [1, 6] | absorbance (OD600) of the culture solution [2, 7] | absorbance (OD600) of the culture solution [2, 8] | absorbance (OD600) of the culture solution [3, 9] | absorbance (OD600) of the culture solution [3, 10] | absorbance (OD600) of the culture solution [4]
CC1=CC(=O)CC(C)(C)[C@@]1(O)/C=C/C(C)=C\C(=O)O [Compound A, Abscisic acid] | 0.042 | 0.035 | 0.040 | 0.035 | 0.043 | 0.035 | 0.045
c1ccc(CNc2ncnc3nc[nH]c23)cc1 [Compound B, 6-Benzyl aminopurine] | 0.042 | 0.034 | 0.041 | 0.034 | 0.043 | 0.035 | 0.058
